ChEMBL document CHEMBL2074021, “Nuclear receptor response elements mediate induction of intestinal MDR1 by rifampin” (J Biol Chem, 2001)

Target: ATP-dependent translocase ABCB1 (Homo sapiens, UniProt P08183)
Experiment: TP_TRANSPORTER: Northern blot from LS174T cell
Format: functional, cell-based

Chain of ATP-dependent translocase ABCB1 (P08183 whole entry): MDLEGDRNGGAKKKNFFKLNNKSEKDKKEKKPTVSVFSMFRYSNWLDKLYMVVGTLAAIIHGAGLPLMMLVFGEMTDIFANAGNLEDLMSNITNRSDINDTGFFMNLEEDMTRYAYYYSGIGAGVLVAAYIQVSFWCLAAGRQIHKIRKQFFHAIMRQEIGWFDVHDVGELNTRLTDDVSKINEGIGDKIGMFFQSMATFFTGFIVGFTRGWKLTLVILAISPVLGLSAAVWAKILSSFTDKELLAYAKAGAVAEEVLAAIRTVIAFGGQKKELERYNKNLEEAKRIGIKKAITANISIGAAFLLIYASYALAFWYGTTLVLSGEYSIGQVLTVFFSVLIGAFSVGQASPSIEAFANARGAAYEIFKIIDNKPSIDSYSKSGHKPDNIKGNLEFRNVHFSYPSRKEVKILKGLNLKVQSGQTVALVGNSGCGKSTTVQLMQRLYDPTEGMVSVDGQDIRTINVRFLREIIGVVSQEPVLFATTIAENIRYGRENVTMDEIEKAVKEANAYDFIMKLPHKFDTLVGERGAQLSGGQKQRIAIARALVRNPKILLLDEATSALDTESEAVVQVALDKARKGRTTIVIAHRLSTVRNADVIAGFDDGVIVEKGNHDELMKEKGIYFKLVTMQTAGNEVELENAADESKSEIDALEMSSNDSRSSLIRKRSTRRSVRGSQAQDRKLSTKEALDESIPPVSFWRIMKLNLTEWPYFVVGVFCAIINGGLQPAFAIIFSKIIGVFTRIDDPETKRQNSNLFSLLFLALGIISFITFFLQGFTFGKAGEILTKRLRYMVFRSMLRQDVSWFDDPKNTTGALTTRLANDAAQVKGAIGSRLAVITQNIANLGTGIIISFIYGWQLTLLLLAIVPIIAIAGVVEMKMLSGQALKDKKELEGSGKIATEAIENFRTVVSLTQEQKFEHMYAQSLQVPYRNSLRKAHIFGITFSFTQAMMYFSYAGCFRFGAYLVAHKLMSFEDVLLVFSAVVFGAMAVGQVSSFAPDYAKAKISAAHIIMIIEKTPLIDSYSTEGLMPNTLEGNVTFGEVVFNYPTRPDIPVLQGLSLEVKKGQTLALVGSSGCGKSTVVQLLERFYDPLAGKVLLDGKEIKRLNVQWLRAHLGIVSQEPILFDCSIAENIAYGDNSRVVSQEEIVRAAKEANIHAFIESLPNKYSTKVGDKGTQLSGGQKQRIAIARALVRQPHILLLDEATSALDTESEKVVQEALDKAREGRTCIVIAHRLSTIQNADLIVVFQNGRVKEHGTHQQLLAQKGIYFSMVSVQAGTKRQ

Activity	SMILES
inducer [+]	NC(=O)N1c2ccccc2C=Cc2ccccc21 [CARBAMAZEPINE]
inducer [+]	Clc1ccccc1C(c1ccccc1)(c1ccccc1)n1ccnc1 [CLOTRIMAZOLE]
inducer [+]	C[C@]12C[C@H](O)[C@H]3[C@@H](CCC4=CC(=O)CC[C@@]43C)[C@@H]1CC[C@@H]2C(=O)CO [CORTICOSTERONE]
inducer [+]	C[C@@H]1C[C@H]2[C@@H]3CCC4=CC(=O)C=C[C@]4(C)[C@@]3(F)[C@@H](O)C[C@]2(C)[C@@]1(O)C(=O)CO [DEXAMETHASONE]
inducer [+]	CC#C[C@]1(O)CC[C@H]2[C@@H]3CCC4=CC(=O)CCC4=C3[C@@H](c3ccc(N(C)C)cc3)C[C@@]21C [MIFEPRISTONE]
inducer [+]	COC(=O)[C@H]1[C@H]2C[C@@H]3c4[nH]c5cc(OC)ccc5c4CCN3C[C@H]2C[C@@H](OC(=O)c2cc(OC)c(OC)c(OC)c2)[C@@H]1OC [RESERPINE]
inducer [+]	CO[C@H]1/C=C/O[C@@]2(C)Oc3c(C)c(O)c4c(O)c(c(/C=N/N5CCN(C)CC5)c(O)c4c3C2=O)NC(=O)/C(C)=C\C=C\[C@H](C)[C@H](O)[C@@H](C)[C@@H](O)[C@@H](C)[C@H](OC(C)=O)[C@@H]1C [RIFAMPIN]

SMILES	Activity
CC(=O)[C@H]1CC[C@H]2[C@@H]3CC[C@@H]4CC(=O)CC[C@]4(C)[C@H]3CC[C@]12C	inducer [+]
COC(=O)C1=C(C)NC(C)=C(C(=O)OC)C1c1ccccc1[N+](=O)[O-] [NIFEDIPINE]	inducer [+]
CC(=O)[C@H]1[C@H](C#N)C[C@H]2[C@@H]3CC=C4C[C@@H](O)CC[C@]4(C)[C@H]3CC[C@@]21C [PREGNENOLONE CARBONITRILE]	inducer [+]
